Data set [1] can be described thus: In vitro DMPK: aqueous solubility. In kind it is physicochemical.
The subject of data set [2] is filarial diseases such as onchocerciasis and lymphatic filariasis. More on the design: method as in PMID 21609260. The conditions noted are these: given subcutaneously; cited from earlier work.
For data set [3] the following is noted: dogs, 20, 40, 100 mg/kg/day, 2 weeks; ref Janssen GLP toxicology studies; cited from earlier work.
Data set [4] relates to C. neoformans isolates. In words: MIC determination, EUCAST methodology. The conditions noted are these: for MIC: Cryptococcus neoformans. In kind it is cell-based, Cryptococcus neoformans. The protocol: The initial in vitro susceptibility testing was performed with H99 (ATCC 208821). An additional 49 clinical isolates were obtained from the National Centre for Microbiology Instituto de Salud Carlos III, Madrid, Spain (courtesy of Ana Alastruey-Izquierdo and Manual Cuenca-Estrella). These isolates were identified to the species level using standard microbiological techniques.
The MIC of flubendazole against H99 (ATCC 208821) and the 49 isolates was estimated using methodology of the European Committee on Antimicrobial Susceptibility Testing (EUCAST [25]) and the Clinical and Laboratory Standards Institute (CLSI [26]). The endpoint for MIC determination using was 50% for both the EUCAST and CLSI methods. MICs were performed in triplicate.

The subject of data set [5] is Cryptococcus neoformans. In kind it is in vivo, mice.
For data set [6], the system named is C. neoformans var. grubii (ATCC 208821; H99). In words: Hollow-fiber infection model of cryptococcal meningoencephalitis. In kind it is cell-based, Cryptococcus neoformans. The conditions noted are these: q24h for 8 days, intended peaks 1.25, 2.5, 10 mg/liter. As for the experimental part:
A new hollow-fiber infection model was developed to investigate the in vitro pharmacodynamics of flubendazole against C. neoformans. The same cartridges (FiberCell Systems, Frederick, MD) and configuration as previously described for bacterial pathogens was used (see, for example, reference). The extracapillary space of each cartridge was inoculated with 40 ml of a suspension containing 6 log10 CFU/ml of C. neoformans var. grubii (ATCC 208821; H99). Yeast extract-peptone-dextrose (YPD) medium was pumped from the central compartment through the cartridge and back again using a peristaltic pump (205 U; Watson-Marlow, United Kingdom). The hollow-fiber infection model was incubated at 37°C in ambient air. The time course of fungal growth was determined by removing 1 ml from the extracapillary space of the cartridge and plating serial 10-fold dilutions to YPD agar.
The relationship between flubendazole exposure and its effect was explored using a range of drug exposures. […] Various doses of flubendazole were administered q24h by infusion over 1 h for 8 days to the central compartment using a programmable syringe driver (Aladdin pump; World Precision Instruments, United Kingdom). There was a 24-h delay in the initiation of flubendazole therapy postinoculation. […]

Data set [7] can be described thus: In vitro DMPK: human microsomal intrinsic clearance. In kind it is in vitro ADME. The conditions noted are these: human microsomes.
A short description of data set [8]: In vitro DMPK: rat hepatic intrinsic clearance. In kind it is in vitro ADME. The conditions noted are these: hepatocytes.
Details of data set [9]: method as in PMID 26443851. The conditions noted are these: cited from earlier work.

≈ marks a conversion by molar mass, not a printed value. Like-named read-outs stand apart in the source and are kept apart here.

Data on one compound can be found in paper PMC5913986, “Repurposing and Reformulation of the Antiparasitic Agent Flubendazole for Treatment of Cryptococcal Meningoencephalitis, a Neglected Fungal Disease” (Antimicrobial Agents and Chemotherapy, 2018).

The term solubility denotes the dissolved amount per volume that the medium holds. By microsomal CLint is commonly meant the rate of metabolic loss divided by the concentration. A lower microsomal CLint goes with greater metabolic stability. For orientation: hepatocyte CLint means the capacity of the preparation to metabolise the compound, expressed as a volume cleared per time. A lower hepatocyte CLint goes with slow turnover. In the case of `COC(=O)Nc1nc2cc(C(=O)c3ccc(F)cc3)ccc2[nH]1` [flubendazole], the solubility in data set [1] came out at 0.8 µM (≈ 0.251 µg/mL). In addition, the “activity in filarial disease models” value in data set [2] was “striking activity”. Moreover, in data set [3], the liver toxicity result is recorded as “liver toxicity was also observed”; the toxicity findings entry was “evidence of toxicity related to the pharmacological activity of flubendazole in the gastrointestinal tract, lymphoid system, and bone marrow, as well as testicular toxicity”. The MIC in data set [4] (EUCAST methodology, read-out: modal MIC) turned out to be 0.125 µg/mL (≈ 0.399 µM). Also, in [4] (range over isolates, Table 1, comparable with EUCAST and CLSI, read-out: MICs), the MIC lay within 0.06 to 0.25 µg/mL (≈ 0.192 to 0.798 µM). In addition, in data set [4] (EUCAST, 50 strains), the “No. of isolates with MIC (mg/liter) of: 0.03” value amounted to 1, the “No. of isolates with MIC (mg/liter) of: 0.06” value amounted to 19, the “No. of isolates with MIC (mg/liter) of: 0.125” value amounted to 25 and the “No. of isolates with MIC (mg/liter) of: 0.25” value came to 5. The “No. of isolates with MIC (mg/liter) of: 0.5” value in [4] (EUCAST, 50 strains) is recorded as 0. Besides, the “antifungal effect, orally administered pure compound” value in data set [5] (mice, oral, water, polysorbate 80/PBS, DMSO, PEG400 or cyclodextrin vehicles, data not shown) is “no demonstrable antifungal effect”. In data set [5] (mouse, in vivo), the “flubendazole concentrations in plasma and cerebrum” value was “quantifiable in plasma and the cerebrum”. Besides, in data set [6], the “antifungal activity in hollow-fiber model” value is listed as “Rapid fungicidal activity”. Further, in data set [7], the microsomal CLint worked out at 44 µL/min/mg. Further, the hepatocyte CLint in data set [8] came to 39 µL/min/1e6 cells. Moreover, in [9], the aneugenicity result is “aneugenic”, the clastogenicity entry is reported as “clastogenic” and the embryotoxicity entry is “embryotoxic”.
